Experimental data as given in patent US20240409609A1, “REVERSIBLE LYSINE COVALENT MODIFIERS OF EGFR AND USES THEREOF” (Terremoto Biosciences, Inc., priority 2021, published 2024).

What was measured:
EGFR WT in Ba/F3 cells = EGFR WT in Ba/F3 cells (Homo sapiens (Human), UniProt P00533); experiment: Ba/F3 pEGFR assay (AlphaLISA p-EGFR Tyr1068); assay type: cell-based; conditions: 2 hrs treatment, media supplemented with EGF
Experimental: Cellular activity was determined using the Ba/F3 system for studying oncogenic mutant kinases (Warmuth 2007). […] Transduced cells were maintained in RPMI 1640 with 10% FBS. EGFR WT transduced cells were grown in media supplemented with EGF. To assay cellular activity of inhibitors, cells were treated with inhibitor from 1000X DMSO stock dilutions and incubated for 2 hrs at 37° C. 5% CO2. Subsequently, p-EGFR (Tyr1068) was quantified using a commercial sandwich immunoassay (PerkinElmer AlphaLISA SureFire assay; ALSU-PEGFR) according to the manufacturer's instructions. […] Curr Opin Oncol 19, 55-60 (2007), which is incorporated herein in its entirety.

EGFR WT = EGFR WT (Homo sapiens (Human), UniProt P00533); experiment: EGFR biochemical assay (AssayQuant chelation-enhanced fluorescence); conditions: 30 min preincubation, reaction time 360 min
Chain of EGFR WT (P00533 668-1210): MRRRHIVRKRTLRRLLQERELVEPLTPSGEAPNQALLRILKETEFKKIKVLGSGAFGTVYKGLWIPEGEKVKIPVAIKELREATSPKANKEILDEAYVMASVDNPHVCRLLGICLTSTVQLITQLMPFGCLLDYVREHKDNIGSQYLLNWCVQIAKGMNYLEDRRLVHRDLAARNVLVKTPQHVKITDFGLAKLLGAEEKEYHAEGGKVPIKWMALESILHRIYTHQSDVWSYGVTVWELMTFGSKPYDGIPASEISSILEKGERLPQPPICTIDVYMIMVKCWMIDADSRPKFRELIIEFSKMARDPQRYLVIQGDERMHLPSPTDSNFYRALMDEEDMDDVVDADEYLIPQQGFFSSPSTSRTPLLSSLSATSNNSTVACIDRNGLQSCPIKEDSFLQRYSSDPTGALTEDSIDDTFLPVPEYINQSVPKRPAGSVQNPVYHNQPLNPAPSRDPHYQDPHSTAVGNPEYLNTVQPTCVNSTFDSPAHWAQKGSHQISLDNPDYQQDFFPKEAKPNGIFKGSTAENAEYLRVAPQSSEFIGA

Chain of EGFR WT in Ba/F3 cells (P00533 25-1210): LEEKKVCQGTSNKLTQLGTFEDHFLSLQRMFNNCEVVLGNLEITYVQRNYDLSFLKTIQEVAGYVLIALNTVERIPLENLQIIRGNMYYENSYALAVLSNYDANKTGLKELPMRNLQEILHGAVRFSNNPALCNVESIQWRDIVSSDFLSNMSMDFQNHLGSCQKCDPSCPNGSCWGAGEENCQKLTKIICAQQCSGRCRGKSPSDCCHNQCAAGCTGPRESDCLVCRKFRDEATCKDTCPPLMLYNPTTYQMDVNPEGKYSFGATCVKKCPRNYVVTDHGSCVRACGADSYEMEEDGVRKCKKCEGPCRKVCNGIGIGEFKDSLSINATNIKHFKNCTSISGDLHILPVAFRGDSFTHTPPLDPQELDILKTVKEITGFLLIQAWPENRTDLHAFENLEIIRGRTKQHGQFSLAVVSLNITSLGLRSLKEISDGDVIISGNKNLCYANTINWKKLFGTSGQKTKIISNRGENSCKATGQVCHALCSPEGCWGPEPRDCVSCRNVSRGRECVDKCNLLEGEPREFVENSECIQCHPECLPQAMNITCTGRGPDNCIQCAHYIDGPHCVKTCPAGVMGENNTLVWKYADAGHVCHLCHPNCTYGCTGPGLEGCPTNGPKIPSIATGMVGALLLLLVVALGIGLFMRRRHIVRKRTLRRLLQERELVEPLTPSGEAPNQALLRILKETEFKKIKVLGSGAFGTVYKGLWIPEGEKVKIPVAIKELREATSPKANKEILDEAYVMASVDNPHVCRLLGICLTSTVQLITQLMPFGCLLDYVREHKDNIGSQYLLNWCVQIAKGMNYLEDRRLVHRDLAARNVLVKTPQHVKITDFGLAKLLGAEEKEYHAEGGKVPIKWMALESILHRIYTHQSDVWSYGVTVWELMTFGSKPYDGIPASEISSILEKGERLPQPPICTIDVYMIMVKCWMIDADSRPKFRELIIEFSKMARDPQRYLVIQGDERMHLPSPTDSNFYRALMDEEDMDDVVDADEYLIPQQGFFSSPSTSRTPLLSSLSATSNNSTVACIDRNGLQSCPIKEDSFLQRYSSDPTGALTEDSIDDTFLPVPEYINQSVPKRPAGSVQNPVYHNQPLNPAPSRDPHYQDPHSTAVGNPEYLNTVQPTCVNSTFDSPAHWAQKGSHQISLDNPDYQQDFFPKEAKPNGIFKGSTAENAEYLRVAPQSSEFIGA

IC50 (EGFR WT in Ba/F3 cells) | IC50 (EGFR WT) | Structure (SMILES)
2570 nM | 200 nM | CN1CCN(Cc2ccc3[nH]/c(=N\C(=O)c4ccnc(C#Cc5cccc(NC(=O)C(F)(F)F)c5C=O)c4)n(CC(C)(C)O)c3c2)CC1 [Compound 101]
1130 nM | 9.32 nM | Cc1ccc(C(=O)/N=c2\[nH]c3ccc(CN4CCN(C)CC4)cc3n2CC(C)(C)O)cc1Oc1cccc(O)c1C=O [Compound 59]
> 5820 nM | 49.1 nM | CN1CCN(Cc2ccc3[nH]/c(=N\C(=O)c4ccnc(C#Cc5cc(F)cc(O)c5C=O)c4)n(CC(C)(C)O)c3c2)CC1 [Compound 89]
6430 nM | 529 nM | CC(C)(O)Cn1/c(=N/C(=O)c2ccnc(-c3cccc(-c4cccc(O)c4C=O)c3)c2)[nH]c2ccccc21 [Compound 130]
> 10000 nM | 58.2 nM | CN1CCN(Cc2ccc3[nH]/c(=N\C(=O)c4ccnc(C#Cc5cccc(NS(C)(=O)=O)c5C=O)c4)n(CC(C)(C)O)c3c2)CC1 [Compound 69]
5260 nM | 8.24 nM | O=Cc1c(O)cccc1Oc1cc(C(=O)/N=c2\[nH]c3ccccc3n2[C@H]2CC[C@@H](O)CC2)ccn1 [Compound 122]
7950 nM | 115 nM | CC(=O)Nc1cccc(C#Cc2cc(C(=O)/N=c3\[nH]c4ccc(CN5CCN(C)CC5)cc4n3CC(C)(C)O)cc(C)n2)c1C=O [Compound 97]
> 10000 nM | 316 nM | CC(C)(O)Cn1/c(=N/C(=O)c2ccnc(COc3cccc(O)c3C=O)c2)[nH]c2ccccc21 [Compound 133]
> 10000 nM | 221 nM | O=Cc1c(O)cccc1Oc1cc(C(=O)/N=c2\[nH]c3ccccc3n2CCN2CCOCC2)ccn1 [Compound 123]
5000 nM | 10.1 nM | CN1CCN(Cc2ccc3[nH]/c(=N\C(=O)c4ccc(Oc5cccc(O)c5C=O)s4)n(CC(C)(C)O)c3c2)CC1 [Compound 73]
763 nM | 278 nM | CN1CCN(c2ccc3[nH]/c(=N\C(=O)c4ccnc(Oc5cccc(O)c5C=O)c4)n(CC(C)(C)O)c3c2)CC1 [Compound 56]
4950 nM | 10.4 nM | CN1CCN(C(=O)c2ccc3[nH]/c(=N\C(=O)c4ccnc(Oc5cccc(O)c5C=O)c4)n(CC(C)(C)O)c3c2)CC1 [Compound 71]
1770 nM | 6.03 nM | CN1CCN(Cc2ccc3[nH]/c(=N\C(=O)c4ccnc(C#Cc5c(F)ccc(O)c5C=O)c4)n(CC(C)(C)O)c3c2)CC1 [Compound 57]
> 10000 nM | > 1000 nM | COc1cc(N2CCC(N3CCN(C)CC3)CC2)ccc1Nc1ncc(-c2ccc(NC(C)=O)c(C=O)c2)c(Nc2ccccc2)n1 [Compound 20]
6850 nM | 197 nM | CC(C)c1ccc(N2CC(CS(C)(=O)=O)C2)c2cnc(Nc3ccnc(-n4cc(-c5cccc(O)c5C=O)cn4)n3)cc12 [Compound 44]
2850 nM | 8.29 nM | CN1CCN(Cc2ccc3[nH]/c(=N\C(=O)c4cc(F)nc(Oc5cccc(O)c5C=O)c4)n(CC(C)(C)O)c3c2)CC1 [Compound 60]
> 10000 nM | 181 nM | CC(C)c1ccc(N2CC(CS(C)(=O)=O)C2)c2cnc(Nc3ccnc(COc4cccc(O)c4C=O)n3)cc12 [Compound 42]
> 10000 nM | 81 nM | CN1CCN(Cc2ccc3[nH]/c(=N\C(=O)c4cncc(Oc5cccc(O)c5C=O)n4)n(CC(C)(C)O)c3c2)CC1 [Compound 108]
2030 nM | 13 nM | CN(C)C/C=C/C(=O)N1CCCC[C@@H](n2c(NC(=O)c3ccnc(Oc4cccc(O)c4C=O)c3)nc3cccc(Cl)c32)C1 [Compound 126]
1420 nM | 8.96 nM | CN1CCN(Cc2ccc3[nH]/c(=N\C(=O)c4ccnc(Oc5cccc(O)c5C=O)c4)n(CC(C)(C)O)c3c2)CC1 [Compound 64]
5200 nM | 80.1 nM | CC(C)(O)Cn1/c(=N/C(=O)c2ccnc(CCc3cccc(O)c3C=O)c2)[nH]c2ccccc21 [Compound 135]
1900 nM | 5.88 nM | CN1CCN(Cc2ccc3[nH]/c(=N\C(=O)c4cc(C#N)cc(Oc5cccc(O)c5C=O)c4)n(CC(C)(C)O)c3c2)CC1 [Compound 51]
3550 nM | 10.1 nM | CC(C)Cn1/c(=N/C(=O)c2ccnc(Oc3cccc(O)c3C=O)c2)[nH]c2ccc(CN3CCN(C)CC3)cc21 [Compound 65]
9650 nM | 19.1 nM | CNc1nc(Nc2ccc(N3CCC(N4CCN(C)CC4)CC3)cc2OC)ncc1-c1ccc(O)c(C=O)c1 [Compound 15]
> 10000 nM | 490 nM | CN1CCN(Cc2ccc3[nH]/c(=N\C(=O)c4cccc(Oc5cccc(O)c5C=O)n4)n(CC(C)(C)O)c3c2)CC1 [Compound 93]

IC50 (EGFR WT in Ba/F3 cells) | IC50 (EGFR WT) | Structure (SMILES)
> 10000 nM | 344 nM | CN1CCN(Cc2ccc3[nH]/c(=N\C(=O)c4ccnc(N5CC(Oc6cccc(O)c6C=O)C5)c4)n(CC(C)(C)O)c3c2)CC1 [Compound 104]
> 10000 nM | > 1000 nM | CC(C)(O)Cn1/c(=N/C(=O)c2ccnc(Nc3cccc(C=O)c3O)c2)[nH]c2ccccc21 [Compound 134]
4090 nM | 8.55 nM | CC(C)(O)Cn1/c(=N/C(=O)c2ccnc(Oc3cccc(O)c3C=O)c2)[nH]c2ccc(CN3CC(C(C)(C)O)C3)cc21 [Compound 63, (E)-2-(2-formyl-3-hydroxyphenoxy)-N-(1-(2-hydroxy-2-methylpropyl)-6-((3-(2-hydroxypropan-2-yl)azetidin-1-yl)methyl)-1,3-dihydro-2H-benzo[d]imidazol-2-ylidene)isonicotinamide]
9060 nM | 296 nM | CN1CCN(Cc2ccc3[nH]/c(=N\C(=O)c4ccnc(Oc5ccccc5C=O)c4)n(CC(C)(C)O)c3c2)CC1 [Compound 92]
> 10000 nM | 131 nM | CN1CCN(Cc2ccc3[nH]/c(=N\C(=O)c4ccnc(-n5ccc(-c6cccc(O)c6C=O)n5)c4)n(CC(C)(C)O)c3c2)CC1 [Compound 83]
70.8 nM | 11 nM | COc1cc(N2CCC(N3CCN(C)CC3)CC2)ccc1Nc1ncc(-c2ccc(O)c(C=O)c2F)c(Nc2ccccc2)n1 [Compound 11]
> 10000 nM | > 1000 nM | COc1cc(N(C)CCN(C)C)c(NC(C)=O)cc1Nc1nccc(-c2cn(Cc3cccc(O)c3C=O)c3ccccc23)n1 [Compound 28]
2950 nM | 18.6 nM | CN1CCN(Cc2ccc3[nH]/c(=N\C(=O)c4ccnc(Oc5cc(F)cc(O)c5C=O)c4)n(CC(C)(C)O)c3c2)CC1 [Compound 66]
> 10000 nM | > 1000 nM | COc1cc(N(C)CCN(C)C)c(NC(C)=O)cc1Nc1nccc(-c2cn(Cc3ccc(C=O)c(O)c3)c3ccccc23)n1 [Compound 29]
2980 nM | 8.71 nM | CN1CCN(Cc2ccc3[nH]/c(=N\C(=O)c4cc(Oc5cccc(O)c5C=O)c5sccc5c4)n(CC(C)(C)O)c3c2)CC1 [Compound 107]
> 10000 nM | 7.8 nM | CN1CCN(Cc2ccc3[nH]/c(=N\C(=O)c4ccnc(C#Cc5ccc(F)c(O)c5C=O)c4)n(CC(C)(C)O)c3c2)CC1 [Compound 72]
3230 nM | 8.75 nM | CC(C)(O)Cn1/c(=N/C(=O)c2ccnc(Oc3cccc(O)c3C=O)c2)[nH]c2ccc(N3CCOCC3)cc21 [Compound 74]
267 nM | 42 nM | CN1CCN(Cc2ccc3[nH]/c(=N\C(=O)c4ccnc(C#Cc5cccc(NC(=O)C6CC6)c5C=O)c4)n(CC(C)(C)O)c3c2)CC1 [Compound 87]
879 nM | 61 nM | COC(=O)Nc1cccc(C#Cc2cc(C(=O)/N=c3\[nH]c4ccc(CN5CCN(C)CC5)cc4n3CC(C)(C)O)ccn2)c1C=O [Compound 84]
> 10000 nM | 74.3 nM | CN1CCN(Cc2ccc3[nH]/c(=N\C(=O)c4ccnc(C#Cc5cncc(O)c5C=O)c4)n(CC(C)(C)O)c3c2)CC1 [Compound 100]
> 10000 nM | 8.81 nM | CC(C)(O)Cn1/c(=N/C(=O)c2ccnc(C#Cc3cccc(O)c3C=O)c2)[nH]c2ccc(CN3CCOCC3)cc21 [Compound 78]
> 10000 nM | 292 nM | COc1cc(N2CCC(N3CCN(C)CC3)CC2)ccc1Nc1ncc(Cl)c(Nc2ccc(O)c(C=O)c2)n1 [Compound 35]
1830 nM | 148 nM | CC(=O)Nc1cccc(Oc2cc(C(=O)/N=c3\[nH]c4ccc(CN5CCN(C)CC5)cc4n3CC(C)(C)O)ccn2)c1C=O [Compound 98]
> 8180 nM | 5.97 nM | CN1CCN(Cc2ccc3[nH]/c(=N\C(=O)c4cc(F)cc(Oc5cccc(O)c5C=O)c4)n(CC(C)(C)O)c3c2)CC1 [Compound 53]
4770 nM | 10.9 nM | CC(C)(O)Cn1/c(=N/C(=O)c2ccnc(Oc3cccc(O)c3C=O)c2)[nH]c2ccc(CN3CCC(C(C)(C)O)CC3)cc21 [Compound 80]
> 10000 nM | 63.4 nM | COc1cc(N2CCC(N3CCN(C)CC3)CC2)ccc1Nc1ncc(-c2cccc(C=O)c2)c(Nc2ccccc2)n1 [Compound 14]
> 10000 nM | 398 nM | COc1cc(N2CCC(N3CCN(C)CC3)CC2)ccc1Nc1ncc(-c2cccc(C=O)c2O)c(Nc2ccccc2)n1 [Compound 5]
4900 nM | 29.4 nM | CN(C)C/C=C/C(=O)N1CCCC[C@@H](n2c(NC(=O)c3ccnc(-n4cc(-c5cccc(O)c5C=O)cn4)c3)nc3cccc(Cl)c32)C1 [Compound 125]
950 nM | 85.4 nM | CC(=O)Nc1cccc(C#Cc2cc(C(=O)/N=c3\[nH]c4ccc(CN5CCN(C)CC5)cc4n3CC(C)(C)O)ccn2)c1C=O [Compound 90]
> 10000 nM | 280 nM | CN1CCN(Cc2ccc3[nH]/c(=N\C(=O)c4ccc(Oc5cccc(O)c5C=O)cc4)n(CC(C)(C)O)c3c2)CC1 [Compound 105]
